Measured values reported in patent publication US9980931B2, “Use of glycyl glutamine against depression” (priority 2013, dated 2018).
Like-named read-outs stand apart in the source and are kept apart here. Peptide text beside a SMILES is read from it.

Assays:
[1] = tested on: thermogenesis caused by alpha-MSH; conditions: Resch and Millington, 1993; cited from earlier work
brainstem of rodents = conditions: applied on the brainstem of rodents iontophoretically (Parish et al., 1983); cited from earlier work
use of alcohol = conditions: administered centrally (Resch et al., 2005; Simpson et al., 1998); cited from earlier work
[2] = administered peripherally; cited from earlier work
[3] = tested on: serotonin output at the nucleus accumbency section of the brain; assay: Brain micro-dialysis, serotonin output after intracerebroventricular injection; format: in vivo, rats; conditions: 100 nmol single intracerebroventricular dose; 2 hours monitoring; p<0.001; FIGS. 4 and 5
Method: The source of the antidepressant effects of Gly-Gln, which is mentioned in the figure descriptions above, have been analyzed and shown in FIGS. 4 and 5. In FIGS. 4 and 5; the effect of Gly-Gin on the serotonin output at the nucleus accumbency section of the brain upon intracerebroventricular Gly-Gln injection can be seen. […] An increase in serotonin outputs can be observed in all time intervals throughout 2 hours of monitoring period following the Gly-Gln injection; however, no serotonin output could be observed from the rodents in the control group who had been administered saline injections by the same way. Serotonin, which is structurally a monoamine neurotransmitter, is a hormone, which makes people feel happy, energetic and lively. When, the subject matter hormone serotonin is deficient in people, they feel depressive, tired and boring. […] Furthermore, the word “Saline” indicated in FIGS. 4 and 5 means salty water. It is used for comparing with the tested medication by administering on the control group.

GABA levels in the brain [4] = assay: GABA levels in the brain after administration; format: in vivo; conditions: Gly-Gln administration; data from our laboratory
From the text: This innovation is related with the use of glycyl-glutamine in the treatment and/or prophylaxis of depression disorder and/or anxiety, which meets all above-mentioned requirements, eliminates all disadvantages and provides some advantages. The purpose of the current invention is to use Glycyl-Glutamine (Gly-Gln) in the treatment and/or prophylaxis of depression and/or anxiety via its effects in the brain other than its metabolic products' (glycine and glutamine) separate effects. […] Glutamine exerts antidepressant effects by increasing gamma-aminobutyric acid (GABA) in the brain however Gly-Gln generates antidepressant effects by increasing serotonin levels in the brain. […] Although glutamine administration increases GABA levels in the brain.

[5] = tested on: conditioned place preference caused by morphine; conditions: Cavun et al., 2005; cited from earlier work
[6] = tested on: conditioned place preference (nicotine); conditions: Goktalay et al., 2006; cited from earlier work
myocardial damage = conditions: Zhang et al., 2013; cited from earlier work
[7] = tested on: cardiorespiratory depression; conditions: Unal et al., 1997; cited from earlier work
GABA levels in the brain [8] = conditions: glutamine administration; cited from earlier work

NCC(=O)N[C@@H](CCC(N)=O)C(=O)O [Gly-Gln, glycyl-glutamine] (H-Gly-Gln-OH)
thermogenesis caused by alpha-MSH [1]: antagonized
effect on cell ignition (brainstem of rodents): inhibiting effect
use of alcohol (use of alcohol): decreased
crossing of the blood-brain barrier [2]: could not across
serotonin output at the nucleus accumbency section of the brain [3]: extremely increased
GABA levels in the brain (GABA levels in the brain [4]): does not alter
addition and tolerance developments (morphine) [5]: inhibited
conditioned place preference caused by morphine [5]: prevented
deprivation symptoms (morphine) [5]: decreased
conditioned place preference and deprivation syndrome (nicotine) [6]: prevented
effects on myocardial damage after severe burn injury (myocardial damage): beneficial effects
cardiorespiratory depression caused by beta-endorphin [7]: eliminated
cardiorespiratory depression caused by beta-endorphin and morphine [7]: eliminated

NC(=O)CC[C@@H]1NC(=O)CNC1=O [cyclo Gly-Gln]
crossing of the blood-brain barrier [2]: could be across
cardiorespiratory depression caused by beta-endorphin and morphine [7]: eliminated

NC(=O)CC[C@H](N)C(=O)O [glutamine]
GABA levels in the brain (GABA levels in the brain [8]): increases

beta-endorphin (YGGFMTSEKSQTPLVTLFKNAIIKNAYKKGE; Beta-endorphin; UniProt P01189 237-267, looked up) [endogenous peptide from which Gly-Gln is produced, reference compound]
use of alcohol (use of alcohol): increased
